Reference: US12486218B2, “Compounds advantageous in the treatment of central nervous system diseases and disorders” (AurimMed Pharma, Inc., priority 2008, dated 2025)

Experiments:
CYP-450 2C19 = CYP-450 2C19 (Homo sapiens, UniProt P33261); assay: In vitro human CYP-450 study, 2C19; type: in vitro ADME; settings: human enzyme
Description: (§1) On the other hand, it is an inhibitor for 2C19, 2D6, 2A6 and 2C9.

CYP-450 1A2 = CYP-450 1A2 (Homo sapiens, UniProt P05177); assay: In vitro human CYP-450 study, 1A2; type: in vitro ADME; settings: human enzyme
Description: as §1

rats [1] = assay: Minimal motor impairment (MID50), rats p.o.; type: in vivo
mice [2] = assay: Corneal kindled mouse model; type: in vivo; settings: mice i.p.; 50 mg/kg @ 1.0 hr
CYP-450 3A4 = CYP-450 3A4 (Homo sapiens, UniProt P08684); assay: In vitro human CYP-450 study, 3A4; type: in vitro ADME; settings: human enzyme
Description: as §1

rats [3] = assay: Gender Neutral test (kindled rats); type: in vivo
mice [4] = assay: 6 Hz (minimal clonic seizure) model, mice i.p.; type: in vivo; settings: Mus musculus, ip; mice, i.p.; read-out: 6 Hz ED50
mice [5] = assay: Minimal motor impairment (MID50), mice i.p.; settings: mice, i.p.
Procedure: The animal testing was performed according to methods known in the relevant art.

rats [6] = assay: Water maze, spatial memory and learning in lithium-pilocarpine treated rats; type: in vivo; settings: pilocarpine-induced SE rats
Procedure: To assess spatial memory and learning in lithium-pilocarpine treated animals and to identify novel compounds that might ameliorate cognitive deficits and neuronal loss, rats were tested for their ability to navigate a water maze and find a submerged escape platform based only on their ability to remember and assess only extra maze visual cues. Learning can be assessed by quantifying the time that an animal takes to find the platform (latency) over a number of independent trials. Further, this model is sensitive to the hippocampal damage associated with pilocarpine-induced status epilepticus (SE).

[7] = test system: rat dopaminergic N27 cells; assay: N27 protection assay against oxidative stress (H2O2 or MPP+; MTT and LDH); type: cell-based; settings: drug 24 hours before 200 μM H2O2 or 640 μM MPP+
How it was run: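 Protection mode: N27 cells pretreated with drug at various concentrations for 24 hours, then exposed to 200 μM H2O2 or 640 μM MPP+. Recovery mode: cells damaged by H2O2 first, drug applied afterwards. Viability measured by MTT reduction and cytotoxicity by released LDH.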

Drosophila = assay: Rotenone-induced toxicity, Drosophila model of sporadic Parkinson's disease; type: in vivo
Description: FIGS. 26A-26C illustrate the effect of compound BX in another Parkinson's disease model. Chronic infusion of rotenone to fruit flies reproduces many features of Parkinson disease. Rotenone is a pesticide that inhibits mitochondrial complex I activity, thus creating an environment of oxidative stress in the cell. Many studies have employed rotenone to generate an experimental animal model of Parkinson's disease (PD) that mimics and elicits PD-like symptoms, such as motor and cognitive decline. […] Compound BX therefore protects Drosophila from the neurotoxic effects of rotenone and may prevent oxidative stress in dopaminergic neurons.

[8] = test system: identified target proteins; assay: Protein profiling using Mass spectrometry after compound BX treatment; settings: protein amount, preliminary
Description: The data presented below in Tables 10-12 illustrate various studies aimed at identifying the targets that compound BX acts upon. Table 10 illustrates preliminary protein profiling data using Mass spectrometry to identify up/down-regulation by compound BX treatment among numerous identified target proteins. In the results shown in Table 10, superoxide dismutase (SOD) protein amount is increased almost two-fold. This is a significant increase in SOD. SOD protein, which is an enzyme that alternately catalyzes the dismutation (or partitioning) of the superoxide (O2^−) radical into either ordinary molecular oxygen (O2) or hydrogen peroxide (H2O2), is strongly associated with amyotrophic lateral sclerosis (ALS). Mutations in the first SOD enzyme (SOD1) can cause familial ALS. Onset of ALS is strongly associated with oxidative stress in the neural tissue of affected individuals.

Sequence of CYP-450 1A2 (P05177 whole entry): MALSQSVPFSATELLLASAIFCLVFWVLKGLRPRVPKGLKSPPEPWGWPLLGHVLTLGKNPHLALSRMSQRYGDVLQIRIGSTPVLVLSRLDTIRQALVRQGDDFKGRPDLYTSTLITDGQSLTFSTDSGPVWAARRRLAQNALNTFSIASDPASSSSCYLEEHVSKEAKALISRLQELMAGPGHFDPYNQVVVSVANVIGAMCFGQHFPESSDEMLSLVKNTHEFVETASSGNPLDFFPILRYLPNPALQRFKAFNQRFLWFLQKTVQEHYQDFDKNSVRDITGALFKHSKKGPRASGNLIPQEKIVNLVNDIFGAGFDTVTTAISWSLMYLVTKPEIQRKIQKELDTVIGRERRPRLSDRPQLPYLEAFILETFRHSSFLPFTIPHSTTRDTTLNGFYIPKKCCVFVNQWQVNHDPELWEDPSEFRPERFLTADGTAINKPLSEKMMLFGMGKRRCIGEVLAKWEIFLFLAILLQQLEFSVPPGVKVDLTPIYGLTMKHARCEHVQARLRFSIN
Sequence of CYP-450 2C19 (P33261 whole entry): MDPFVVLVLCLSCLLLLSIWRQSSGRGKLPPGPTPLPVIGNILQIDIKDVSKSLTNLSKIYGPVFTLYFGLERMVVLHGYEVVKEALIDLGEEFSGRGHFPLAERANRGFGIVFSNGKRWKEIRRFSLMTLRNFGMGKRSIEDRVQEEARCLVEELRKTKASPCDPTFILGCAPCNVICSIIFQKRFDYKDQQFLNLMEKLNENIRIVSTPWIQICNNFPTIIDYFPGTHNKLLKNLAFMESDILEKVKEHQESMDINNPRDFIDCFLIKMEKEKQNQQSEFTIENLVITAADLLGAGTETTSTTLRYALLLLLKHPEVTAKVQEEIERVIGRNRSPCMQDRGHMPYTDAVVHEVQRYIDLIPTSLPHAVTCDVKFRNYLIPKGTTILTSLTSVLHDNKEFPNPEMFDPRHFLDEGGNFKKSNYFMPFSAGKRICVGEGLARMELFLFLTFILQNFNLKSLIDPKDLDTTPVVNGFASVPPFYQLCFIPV
Sequence of CYP-450 3A4 (P08684 whole entry): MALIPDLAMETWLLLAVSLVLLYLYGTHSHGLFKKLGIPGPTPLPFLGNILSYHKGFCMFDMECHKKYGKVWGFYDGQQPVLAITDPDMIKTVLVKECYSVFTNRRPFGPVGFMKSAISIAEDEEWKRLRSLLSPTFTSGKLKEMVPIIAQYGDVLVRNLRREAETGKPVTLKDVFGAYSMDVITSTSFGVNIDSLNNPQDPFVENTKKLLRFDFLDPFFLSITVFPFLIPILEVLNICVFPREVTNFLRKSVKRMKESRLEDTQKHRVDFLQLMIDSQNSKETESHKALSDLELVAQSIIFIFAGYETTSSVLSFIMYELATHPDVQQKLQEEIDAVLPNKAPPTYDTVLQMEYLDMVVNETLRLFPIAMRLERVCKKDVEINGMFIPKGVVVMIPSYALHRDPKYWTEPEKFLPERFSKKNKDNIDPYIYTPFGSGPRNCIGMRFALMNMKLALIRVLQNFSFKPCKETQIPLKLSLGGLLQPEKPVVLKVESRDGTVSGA

CC(CC(N)=O)c1ccc(OC(F)(F)F)cc1 (racemic) [Compound H, 3-[4-(trifluoromethoxy)-phenyl]butyramide]
inhibition of CYP-450 2C19 (CYP-450 2C19): inhibitor | inhibition of CYP-450 1A2 (CYP-450 1A2): either no or only a remote possibility of inhibiting | MID50 (rats [1]): >500 mg/kg | Corneal Kindled, Average seizure score (mice [2]): 2: (0, 4, | Corneal Kindled, fraction of animals (mice [2]): 2/4 @ | inhibition of CYP-450 3A4 (CYP-450 3A4): either no or only a remote possibility of inhibiting | efficacy in the two genders (rats [3]): equally efficacious in both genders | ED50 (mice [4]): 55 mg/kg | MID50 (median minimal motor impairment dose) (mice [5]): 158.98 mg/kg

C[C@H](CC(N)=O)c1ccc(OC(F)(F)F)cc1 (single isomer, unassigned) [Compound BX, R-(−)-3-(4-Trifluoromethoxy-phenyl)butyramide]
spatial learning and memory in the water maze task (rats [6]): preserved spatial learning and memory | water maze learning curve in terms of latency (rats [6]): much faster learning curve | neuroprotective effect against H2O2 and MPP+ oxidative stresses (MTT and LDH assays) [7]: potent dose-dependent neuroprotective effects | survival of Drosophila exposed to rotenone (Drosophila; 500 μM rotenone): enhances survival | locomotion speed in rotenone-treated flies (Drosophila; rotenone-treated Drosophila versus mock-treated controls): increases locomotion speed in rotenone-treated flies to a level virtually indistinguishable from mock-treated controls | Compound Ratio, 14-3-3 Protein Gamma (P61983) [8]: 1.15 | Compound Ratio, Elongation factor 1-alpha 1 (P62630) [8]: 0.59 | Compound Ratio, Eukaryotic translation initiation factor 5A-1 (Q3T1J1) [8]: 1.64 | Compound Ratio, Glycine tRNA ligase (G3V7G8) [8]: 0.67 | Compound Ratio, Heat Shock Protein HSP 90-alpha (P82995) [8]: 0.77 | Compound Ratio, Heat shock 70 kDA protein (F1LRV4) [8]: 0.73 | Compound Ratio, Hypoxia up-regulated protein (Q63617) [8]: 0.58 | Compound Ratio, Malate Dehydrogenase (P04636) [8]: 0.68 | Compound Ratio, Proteasome subunit alpha type-2 (P17220) [8]: 0.35 | Compound Ratio, Superoxide dismutase [CU—Zn] (P07632) [8]: 1.72
